According to patent US20180071317A1, “USE OF AGENTS THAT ALTER THE PERITUMORAL ENVIRONMENT FOR THE TREATMENT OF CANCER” (SERVICIO ANDALUZ DE SALUD, priority 2011, published 2018):

Experiments:
[1] = tested on: fibroblasts (PHF) co-cultured with human choriocarcinoma tumor cells (AC-1M32); assay: Marker expression (IHC) in PHF co-cultured with AC-1M32 tumor cells; format: cell-based; conditions: co-culture with AC-1M32; SP 1 μM + antagonist 1 μM; 48 h;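 further: Read-out is the percentage of PHF fibroblasts positive for each marker, with cells grown in fresh healthy-donor blood plasma, six replicates, reference being fibroblasts cultured alone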
Method: (§4) All cultures were maintained 48 hours, following which the same cells were included in paraffin blocks for subsequent analysis of the expression of different markers by immunohistochemistry (see Example 1). […] All experiments were carried out sixfold. Analyzed markers in fibroblast cells (stromal cells) were: TGF-α, TGF-β1, TGF-β2, TGF-β3, SPARC, MMP-3, MMP-7, MMP-9, MMP-11, MMP-13 and MMP-14.

[2] = tested on: fibroblasts (PHF) co-cultivated with tumor cell carcinoma of urinary bladder (5637); assay: Marker expression (IHC) in PHF co-cultured with 5637 tumor cells; format: cell-based, human; conditions: co-culture with 5637; SP 1 μM + antagonist 1 μM; 48 h
Method: as §4

[3] = tested on: tumors from the tumor cell lines of Table 9; assay: Mean tumor volume in nude mice injected subcutaneously with human tumor cells; conditions: 30 mg/kg/day oral, 7 days
[4] = tested on: fibroblasts (PHF) co-cultured with human melanoma tumor cells (MEL-HO1); assay: Marker expression (IHC) in PHF co-cultured with MEL-HO1 tumor cells; format: cell-based; conditions: PHF co-cultured with MEL-HO1 + SP + NK1 antagonist;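 further: values are the percentage of fibroblasts positive for each marker, with cultures grown in fresh healthy-donor blood plasma and each experiment run six times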
Method: as §4

[5] = tested on: fibroblasts of tumors produced by human rhabdomyosarcoma tumor line (A-204); assay: Marker expression (IHC) in fibroblasts of tumor or peritumoral area, mouse model, A-204; format: in vivo; conditions: A-204 tumors in mice, 30 mg/kg/day oral, 7 days
Method: (§1) In vitro tests conducted in Example 5 are now carried out in an experimental model in mice in vivo. […] Subsequently, the expression in fibroblasts tumoral and peritumoral area of molecular markers associated with progression and maintenance of tumors: TGF-α, TGF-β1, TGF-β2, TGF-β3, MMP-7, MMP-11, MMP-14 were analyzed by immunohistochemistry.
(§2) Were injected with 2×10^7 cells tumors (corresponding, in each case to each of the tumor types as specified in Table 9) in 200 of PBS subcutaneously μl. […] Mice were randomized into two groups when the tumors reached a volume of 75 mm^3 One group was treated with non-peptide receptor antagonists NK1 and the other with placebo 200μ1. […] Tumors and samples of non-neoplastic stromal areas remote from the tumor were halved, formalin fixed (4%) and then were included in paraffin blocks for analysis by immunohistochemistry.
(§3) The expression on fibroblast cells obtained in the animal model was analyzed by immunohistochemistry, of the above markers: TGF-α, TGF-β1, TGF-β2, TGF-β3, MMP-7, MMP-1 1, MMP-14MP-14. Tables 32 to 35 depict the type of label used and the average percentage of fibroblasts present in non-tumor areas, tumor and peritumoral (±SD) which were expressing the marker shown in each of the tumor types developed from of the different cell lines used. This process was realized in mice treated with non-peptide antagonists of NK1 receptor and in untreated animals (control).

[6] = tested on: fibroblasts of tumors produced by tumor cell line of human melanoma (MEL HO); assay: Marker expression (IHC) in fibroblasts of tumor or peritumoral area, mouse model, MEL HO; format: in vivo; conditions: MEL HO tumors in mice, 30 mg/kg/day oral, 7 days
Method: as §1, §2, §3

C[C@@H](O[C@H]1OCCN(Cc2n[nH]c(=O)[nH]2)[C@H]1c1ccc(F)cc1)c1cc(C(F)(F)F)cc(C(F)(F)F)c1 [Aprepitant]
PHF cells expressing MMP-3 [1]: 0% | PHF cells expressing MMP-7 [1]: 0% | PHF cells expressing MMP-9 [1]: 0% | PHF cells expressing MMP-11 [1]: 0% | PHF cells expressing MMP-13 [1]: 0% | PHF cells expressing MMP-14 [1]: 0% | PHF cells expressing SPARC [1]: 0% | PHF cells expressing TGF-α [1]: 0% | PHF cells expressing TGF-β1 [1]: 0% | PHF cells expressing TGF-β2 [1]: 0% | PHF cells expressing TGF-β3 [1]: 0% | PHF cells expressing MMP-3 [2]: 0% | PHF cells expressing MMP-7 [2]: 0% | PHF cells expressing MMP-9 [2]: 0% | PHF cells expressing MMP-11 [2]: 0% | PHF cells expressing MMP-13 [2]: 0% | PHF cells expressing MMP-14 [2]: 0% | PHF cells expressing SPARC [2]: 0% | PHF cells expressing TGF-α [2]: 0% | PHF cells expressing TGF-β1 [2]: 0% | PHF cells expressing TGF-β2 [2]: 0% | PHF cells expressing TGF-β3 [2]: 0% | Mean tumor volume ([3]; B lymphoblastic leukemia (peripheral human B lymphoblastoid cells) SD1): 103 ± 8 | Mean tumor volume ([3]; Carcinoma of human non-small cell lung COR-L23): 102 ± 5 | Mean tumor volume ([3]; Carcinoma of human non-small cell lung H-1963): 98 ± 5 | Mean tumor volume ([3]; Carcinoma of human non-small cell lung HCC-44): 105 ± 7 | Mean tumor volume ([3]; Carcinoma of human small cell lung H-209): 104 ± 6 | Mean tumor volume ([3]; Carcinoma of human urinary bladder 5637): 102 ± 4 | Mean tumor volume ([3]; Human B lymphoma BC-1): 108 ± 5 | Mean tumor volume ([3]; Human Burkitt lymphoma CA-46): 109 ± 7 | Mean tumor volume ([3]; Human Fibrosarcoma HT-1080): 100 ± 4 | Mean tumor volume ([3]; Human Hodgkin lymphoma KM-H2): 101 ± 5 | Mean tumor volume ([3]; Human Rhabdomyosarcoma A-204): 102 ± 8 | Mean tumor volume ([3]; Human T-cell leukemia/NK YT): 106 ± 6 | Mean tumor volume ([3]; Human T-lymphoma DERL human Hodgkin 7Linfoma KM-H2): 105 ± 6 | Mean tumor volume ([3]; Human breast adenocarcinoma humano MCF-7): 95 ± 6 | Mean tumor volume ([3]; Human breast carcinoma MDA-MB-468): 99 ± 7 | Mean tumor volume ([3]; Human breast carcinoma MT-3): 109 ± 2 | Mean tumor volume ([3]; Human choriocarcinoma AC-1M32): 112 ± 4 | Mean tumor volume ([3]; Human colon carcinoma SW-403): 79 ± 4 | Mean tumor volume ([3]; Human endometrial carcinoma AN3-CA): 90 ± 4 | Mean tumor volume ([3]; Human endometrial stromal sarcoma ESS-1): 107 ± 4 | Mean tumor volume ([3]; Human folicular thyroid carcinoma TT2609-C02): 105 ± 7 | Mean tumor volume ([3]; Human gastric adenocarcinoma 23132/87): 77 ± 6 | Mean tumor volume ([3]; Human glioma GAMG): 108 ± 8 | Mean tumor volume ([3]; Human lung carcinoma A-427): 104 ± 4 | Mean tumor volume ([3]; Human lung carcinoma DV-90): 97 ± 3 | Mean tumor volume ([3]; Human lymphoblastic leukemia T BE-13): 102 ± 6 | Mean tumor volume ([3]; Human malignant fibrous histiocytoma U-2197): 102 ± 6 | Mean tumor volume ([3]; Human melanoma MEL HO): 104 ± 5 | Mean tumor volume ([3]; Human multiple myeloma COLO-677): 102 ± 6 | Mean tumor volume ([3]; Human neuroblastoma KELLY): 105 ± 6 | Mean tumor volume ([3]; Human neuroblastoma bone marrow SKN-BE 2): 97 ± 9 | Mean tumor volume ([3]; Human osteosarcoma CAL-72): 112 ± 4 | Mean tumor volume ([3]; Human ovarian adenocarcinoma EFO-27): 98 ± 7 | Mean tumor volume ([3]; Human ovarian carcinoma COLO-704): 101 ± 7 | Mean tumor volume ([3]; Human pancretic adenocarcinoma CAPAN-1): 86 ± 8 | Mean tumor volume ([3]; Human pancretic adenocarcinoma PA-TU 8902): 102 ± 7 | Mean tumor volume ([3]; Human papillary thyroid carcinoma metastasizing B-CPAP): 102 ± 4 | Mean tumor volume ([3]; Human prostate carcinoma 22RV1): 103 ± 5 | Mean tumor volume ([3]; Human retinoblastoma WERI-Rb-1): 99 ± 4 | Mean tumor volume ([3]; Human thyroid carcinoma 8505C): 105 ± 3 | Mean tumor volume ([3]; Human uterine cervix carcinoma KB): 103 ± 9 | Mean tumor volume ([3]; Melanoma humano, metástasis en ganglio linfático COLO 858): 109 ± 4 | Mean tumor volume ([3]; Sarcoma human Edwing MHH-ES-1): 103 ± 5 | Mean tumor volume ([3]; Transitional Carcinoma of human urinary bladder RT-4): 102 ± 6 | cells expressing MMP-3 [4]: 0% | cells expressing MMP-7 [4]: 0% | cells expressing MMP-9 [4]: 0% | cells expressing MMP-11 [4]: 0% | cells expressing MMP-13 [4]: 0% | cells expressing MMP-14 [4]: 0% | cells expressing SPARC [4]: 0% | cells expressing TGF-α [4]: 0% | cells expressing TGF-β1 [4]: 0% | cells expressing TGF-β2 [4]: 0% | cells expressing TGF-β3 [4]: 0% | fibroblasts expressing MMP-7 [5]: 0% | fibroblasts expressing MMP-11 [5]: 0% | fibroblasts expressing MMP-14 [5]: 0% | fibroblasts expressing TGF-α [5]: 0% | fibroblasts expressing TGF-β 1 [5]: 0% | fibroblasts expressing TGF-β 2 [5]: 0% | fibroblasts expressing TGF-β 3 [5]: 0% | fibroblasts expressing MMP-7 [6]: 0% | fibroblasts expressing MMP-11 [6]: 0% | fibroblasts expressing MMP-14 [6]: 0% | fibroblasts expressing TGF-α [6]: 0% | fibroblasts expressing TGF-β 1 [6]: 0% | fibroblasts expressing TGF-β 2 [6]: 0% | fibroblasts expressing TGF-β 3 [6]: 0%
